Measurements: patent US5036097A, “Phenylbutyl nitrone compositions and methods for prevention of gastric ulceration” (Oklahoma Medical Research Foundation, priority 1990, dated 1991)

Key:
[1] = pH stability of PBN; type: physicochemical; details: degrades at pH less than approximately
[2] = previous studies, standard techniques; cited from earlier work
[3] = acute i.v. toxicity in gerbils; type: in vivo; details: 10 to 300 mg/kg i.v., injected within 60 seconds
From the text: (§1) In vivo toxicity tests have indicated the following. […] An LD50 has yet to be determined because of the lack of toxicity.

[4] = continuous i.v. administration toxicity in gerbils; type: in vivo; details: 50 mg/kg/hr for a total of 48 hr
From the text: as §1

[5] = test system: piroxicam-induced gastric ulcers; assay: suppression of piroxicam-induced gastric ulcers by interventions (PBN, free radical scavengers, ascorbate); type: in vivo, rat (male Sprague-Dawley)
Method: FIG. 2 is a graph of % control ulceration from piroxicam versus the % ulceration in the presence of free radical scavengers. The […] scavenger dimethylthiourea (DMTU, 500 mg/kg i.p.) was given 24 hours and 1 hour before piroxicam. […] The antioxidant butylated hydroxytoluene (BHT, 25 mg/kg/day i.p. in corn oil) was given for three days before and again 1 hour before piroxicam. The % control ulceration is determined by averaging the ratios of cm^2 ulceration in control stomachs from rats given piroxicam alone, and multiplying×100. +P< 0.01 compared to piroxicam alone.
(§2) Male Sprague-Dawley rats (Charles River, Wilmington, Mass.) weighing 300-325 g were housed individually in wire bottomed cages to prevent ingestion of hair and feces. Animals were maintained without food for 48 hours and without water for 24 hours prior to each experiment. Piroxicam or aspirin and other NSAIDS were suspended in a vehicle of 1% carboxymethylcellulose, 0.1% Tween 80 and 0.15 M HCl, and administered in a volume of 1 ml on the morning of study by oral gavage using an 18 gauge curved blunt needle (Popper and Sons, New Hyde Park, N.Y.). One ml of vehicle alone was administered for control experiments. HCl was added to the vehicle to insure an acid environment in the stomach in all studies. […] Four hours after the administration of NSAID or vehicle, rats were euthanized with sodium pentobarbital (100 mg/kg IP), and the surface area of ulceration per stomach was quantitated using morphometric techniques. Stomachs were removed, the lumen was exposed by an incision along the radius of greater curvature, and the stomach was washed in phosphate buffered saline. The luminal surface was laid out on a flat surface with gross folds removed by gentle distension. The percentage of surface involved with submucosal hemorrhage was then determined by point counting, as described by Weibel, E. R. Stereological Methods: Practical Methods for Biological Morphometry. Academic Press, New York 1980. This was done by tabulation of the percentage of points over ulcerations using a point counting eyepiece graticle (16×16 points in a square format). At the 12X magnification used on the Wild dissecting microscope (Wild-Heerbrugg, Basel, Switzerland), the graticle covered a 1 cm^2 area of the surface. Four to five non-overlapping sampling sites were taken to fully cover the exposed surface. To determine the total luminal surface area, the outline of the outer boundary of the stomach was traced using a transparent acetate sheet, and the area was determined from planimetry. The surface area of ulcerated regions per stomach was then determined by multiplying the surface density of ulceration regions by the luminal surface area of the stomach.
Differences in total luminal surface area in cm^2, surface area of ulcerated regions per stomach and biochemical analyses between each treatment intervention and its corresponding untreated control group are compared using the Mann-Whitney U Test, Dixon, W. J., Massey, F. J., Jr. Introduction to statistical methods, 4th edition. (New York: McGraw Hill, 1983). […] In vitro studies are compared using the Student's unpaired T-test, Dixon, W. J., Massey, F. J., Jr. Introduction to statistical methods, 4th edition. (New York: McGraw Hill, 1983). Values are expressed as mean±SEM. Significance is assumed when P<0.05.
In each experiment, the surface area of gastric ulceration produced by piroxicam in 15 treated rats was compared to that in 15 rats of the same age and size that were fasted simultaneously but which received no intervention. Phenylbutyl nitrone (30 mg/kg) was given orally in water 1 hour before piroxicam and also added to vehicle when piroxicam was administered. When intervention were given with piroxicam, the pH of the final mixture was adjusted if necessary to equal that of piroxicam and vehicle alone.

[6] = pharmacokinetic studies, plasma half-life; type: in vivo; details: rat; limited pharmacokinetic studies
From the text: Limited pharmokinetic studies indicate that the plasma half-life in the rat is three to four hours.

[7] = in vivo acute toxicity in rodents; details: doses up to 3 g/kg in rodents
From the text: as §1

[8] = bioavailability / distribution estimate; type: in vivo
[9] = test system: isolated perfused gastric mucosa; details: cited from earlier work
[10] = test system: gastric ulceration; assay: NSAID-induced gastric ulceration in rats (surface area of ulceration); type: in vivo, rat (male Sprague-Dawley); details: aspirin 200, diflunisal 125, naproxen 150, ibuprofen 230 mg/kg; oral gavage, 4 h
Method: as §2, with “Animals were maintained without food for 48 hours and without water for 24 hours prior to each experiment.” left out, “Academic Press, New York 1980.” left out
Differences in total luminal surface area in cm^2, surface area of ulcerated regions per stomach and biochemical analyses between each treatment intervention and its corresponding untreated control group are compared using the Mann-Whitney U Test, Dixon, W. J., Massey, F. J., Jr. Introduction to statistical methods, 4th edition. […] In vitro studies are compared using the Student's unpaired T-test, Dixon, W. J., Massey, F. J., Jr. Introduction to statistical methods, 4th edition. […] Values are expressed as mean±SEM. Significance is assumed when P<0.05.
Phenyl N-tert-butyl nitrone is obtained from Aldrich Chemicals, Milwaukee, Wis. All other chemicals and pharmaceuticals are from Sigma Chemical.

CC(C)(C)[N+]([O-])=Cc1ccccc1 [PBN, N-tert-Butyl-α-phenylnitrone]
pH below which PBN degrades [1]: 3 to 4 pH
mutagenicity [2]: not mutagenic
acute toxic effects, i.v. [3]: no acute toxic effects
adverse effect, continuous i.v. administration [4]: no adverse effect
ulcerations/unit area ([5]; piroxicam 23 mg/kg only, or plus PBN 30 mg/kg orally 1 hour before and with piroxicam, p<0.0052): 0.077±0.104 ulcerations/unit area
inhibition of piroxicam-induced ulcers, in words ([5]; piroxicam 23 mg/kg, FIG. 2): markedly inhibited
plasma half-life [6]: three to four
adverse effects, acute doses [7]: no adverse effects
Kp ([8]; brain, read-out: brain level as % of the plasma concentration): 0.8
distribution, in words ([8]; in vivo): widely available throughout the body and is able to cross all of the barriers to distribution, including the blood brain barrier

O=C1O[C@H]([C@@H](O)CO)C(O)=C1O [ascorbate]
increase in ulceration compared to control stomachs treated with piroxicam alone ([5]; ascorbate plus piroxicam, P<0.001): over 600%
ulceration (ascorbate experiment) ([5]; ascorbate-treated stomachs (with piroxicam) vs piroxicam alone, P<0.001): 0.194±0.039 cm^2

CC(=O)Oc1ccccc1C(=O)O [aspirin]
mucosal adenosine triphosphate (ATP) and phosphocreatine (PC) [9]: decreases mucosal adenosine triphosphate (ATP) and phosphocreatine (PC)
gastric ulceration caused by NSAID [10]: 0.972±0.318 cm^2

O=C(O)c1cc(-c2ccc(F)cc2F)ccc1O [diflunisal]
gastric ulceration caused by NSAID [10]: 0.597±0.103 cm^2

CC(C)Cc1ccc(C(C)C(=O)O)cc1 (centres unmarked) [ibuprofen]
gastric ulceration caused by NSAID [10]: 0.644±0.110 cm^2

COc1ccc2cc([C@H](C)C(=O)O)ccc2c1 [naproxen]
gastric ulceration caused by NSAID [10]: 0.370±0.056 cm^2
